Assay in all cases: DTP human tumour cell line panel, 48 h
Test [1] has as its system COLO 205.
Test [2] concerns HCT-15.
The test system of test [3] is HL-60.
In test [4] the test system is HOP-62.
The subject of test [5] is Hs-578T.
The subject of test [6] is LXFL 529.
Test [7] has as its system MDA-MB-435.
The subject of test [8] is Malme-3M.
The test system of test [9] is NCI-H226.
Test [10] deals with NCI-H23.
Test [11] deals with OVCAR-3.
Test [12] relates to OVCAR-5.
The test system of test [13] is PC-3.
Test [14] relates to RPMI-8226.
Test [15] deals with SF-268.
The test system of test [16] is SK-MEL-2.
The test system of test [17] is SW-620.
Test [18] deals with U-251.
Test [19] deals with UO-31.
Test [20] concerns MOLT-4.

The values that follow come from ChEMBL document CHEMBL1201862, “PubChem BioAssay data set” (2004).

Molecules are shown by their SMILES.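 Briefly, cells in 96-well plates were exposed to five compound concentrations for 48 h, and endpoints were estimated by linear interpolation. GI50 marks 50% less growth.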 Calls of active or inactive are those of the source. Rule as the data show it: active = GI50 up to about 1.1 µM and inactive = higher.

As a reminder, the GI50 is the concentration that inhibits growth by half. As for `O=[N+]([O-])c1cccc2nc3ccccc3c(NCCN(CCO)CCO)c12`, the GI50 in test [1] is 0.000904 µM (active); in [2], 0.0108 µM; in test [3], 0.0104 µM (active); in test [4] it was 0.00282 µM (active); in test [5], 5.15 nM (active); in test [6] it was 0.0187 µM (active). In addition, the GI50 was 1.41 nM (active) in test [7]; 0.00296 µM (active) in test [8]; 0.00102 µM (active) in test [9]; 0.00222 µM (active) in test [10]; 0.00536 µM (active) in test [11]; 0.00501 µM (active) in test [12]. The concentration for 50% growth inhibition (GI50) in [13] is 2.13 nM (active); in test [14] it was 0.00246 µM (active); in test [15], 0.00423 µM (active); in [16] it was 0.00527 µM (active); in test [17], 0.000774 µM (active); in test [18], 0.00391 µM (active). The GI50 in test [19] was 0.0397 µM (active).
In the case of `COc1ccc(N2C(=O)C3c4[nH]c5ccccc5c4C4CCCCCCCCCCC4C3C2=O)cc1` (stereo not given), the GI50 in test [1] was 14.7 µM (inactive); in test [2], 5.52 µM; in test [3], 18.9 µM (inactive); in test [4], 20.3 µM (inactive); in test [6], 6.93 µM (inactive); in [20] it was 15 µM (inactive). Further, the GI50 in test [8] was 17.1 µM (inactive); in test [9], 6.93 µM (inactive); in test [10], 9.38 µM (inactive); in [11], 9.95 µM (inactive); in test [12], > 37.1 µM (inactive); in [14], 18.7 µM (inactive). Further, the GI50 was 5.16 µM (inactive) in test [15]; > 100 µM (inactive) in [16]; 4.58 µM (inactive) in [17]; 7.62 µM (inactive) in test [18]; > 40.6 µM (inactive) in [19].
For the molecule `O=[N+]([O-])C1(CO)COC2(OC1)c1ccccc1-c1ccccc12`, the GI50 in test [1] was 40.5 µM (inactive); in test [2], 59.4 µM; in test [3], 21.9 µM (inactive); in test [4] it was > 100 µM (inactive); in test [5], > 100000 nM (inactive); in test [6], > 100 µM (inactive). Further, the GI50 in test [7] was > 100000 nM (inactive); in test [20], 53.2 µM (inactive); in test [8], 48.5 µM (inactive); in test [9] it was > 100 µM (inactive); in [10], > 100 µM (inactive); in [11], > 73.5 µM (inactive). The GI50 in test [12] is > 100 µM (inactive); in test [13], > 74800 nM (inactive); in test [14], 23.8 µM (inactive); in test [15], 52.8 µM (inactive); in test [16] it was > 100 µM (inactive); in test [17], 21.6 µM (inactive). For the same molecule, the GI50 in test [18] is > 77.8 µM (inactive); in test [19], > 100 µM (inactive).
With `COc1cc(/C=C\c2ccccc2)cc(OC)c1OC`, the GI50 in [1] was 3.08 µM (inactive); in [2], 2.6 µM; in test [3] it was 1.75 µM (inactive); in test [4] it was 2.9 µM (inactive); in test [6] it was 6.56 µM (inactive); in test [20], 3.7 µM (inactive). The GI50 in [8] was 2.95 µM (inactive); in test [9], 4.2 µM (inactive); in test [10], 4.13 µM (inactive); in test [11] it was 2.29 µM (inactive); in test [12], 10.3 µM (inactive); in test [14], 4.18 µM (inactive). The GI50 in [15] is 6.55 µM (inactive); in test [16], 4.07 µM (inactive); in test [17] it was 2.84 µM (inactive); in [18], 4.15 µM (inactive); in test [19], 4.46 µM (inactive).
Consider `O=S(=O)(O)c1ccc(/N=N/c2nc(C(F)(F)F)c(C(F)(F)F)[nH]2)cc1`, for which the GI50 in test [1] was 74.8 µM (inactive); in [2], 31.4 µM; in test [3], 32.1 µM (inactive); in [4], 36.6 µM (inactive); in test [6], 87.3 µM (inactive); in test [20] it was 24.2 µM (inactive). In addition, the GI50 in test [8] is 29.2 µM (inactive); in [9], 31.5 µM (inactive); in test [10], 24.2 µM (inactive); in test [11] it was 33 µM (inactive); in [12], 18.1 µM (inactive); in test [14], > 100 µM (inactive). Also, the GI50 in test [15] is 56.5 µM (inactive); in [16] it was 30.3 µM (inactive); in test [17] it was 41.5 µM (inactive); in test [18], 41.9 µM (inactive); in test [19], 34 µM (inactive).
`CCCCCCCC(=O)OC(CBr)COC(=O)C(C)(C)C` (stereo not given): the GI50 in [1] is > 100 µM (inactive); in test [2] it was > 100 µM; in test [3], 38 µM (inactive); in [4], > 100 µM (inactive); in test [6] it was > 100 µM (inactive); in test [20], 28.9 µM (inactive). Moreover, the GI50 in [8] is > 100 µM (inactive); in [9], > 100 µM (inactive); in test [10], > 100 µM (inactive); in test [11], > 68.2 µM (inactive); in test [12], > 100 µM (inactive); in [14], 21.6 µM (inactive). Further, the GI50 in [15], in [16], in [17], in test [18] and in [19] was > 100 µM (inactive) throughout.
As to `COc1cc2c(cc1OC)[C@H]1CN3CCC[C@H]3C=C1c1ccc(OC)c(O)c1-2`, the GI50 was 0.0006 µM (active) in test [1]; 0.000549 µM in test [2]; 0.000487 µM (active) in [3]; < 0.0001 µM (active) in test [4]; 1.92 nM (active) in test [5]; < 0.0001 µM (active) in test [6]. Besides, the GI50 in test [7] was 2.64 nM (active); in [20], 0.000486 µM (active); in test [8], 0.000608 µM (active); in test [9] it was 0.000736 µM (active); in test [10], 0.000553 µM (active); in test [11] it was < 0.0001 µM (active). Further, the GI50 in test [12] is 0.000653 µM (active); in test [13], 3.59 nM (active); in test [14] it was 0.000577 µM (active); in [15] it was 0.000819 µM (active); in [16] it was 0.000505 µM (active); in test [17], 0.000499 µM (active). The GI50 in test [18] is 0.000605 µM (active); in test [19] it was 0.000959 µM (active).
In the case of `c1coc(CNc2[nH]cnc3nncc2-3)c1`, the GI50 was > 100 µM (inactive) in test [1]; > 100 µM in test [2]; 87.9 µM (inactive) in [3]; > 100 µM (inactive) in test [4]; > 100 µM (inactive) in test [6]; > 100 µM (inactive) in test [20]. For the same molecule, the GI50 in test [8] was > 100 µM (inactive); in test [9], > 100 µM (inactive); in test [10] it was 79.6 µM (inactive); in test [11], > 100 µM (inactive); in test [12] it was > 100 µM (inactive); in test [14] it was 73.8 µM (inactive). For the same molecule, the GI50 was > 100 µM (inactive) in test [15]; > 100 µM (inactive) in test [16]; > 100 µM (inactive) in test [17]; > 100 µM (inactive) in test [18]; 70.3 µM (inactive) in test [19].
For the molecule `CN(C)c1ccc(/C=c2\sc3nnc(-c4cccnc4)n3c2=O)cc1`, the GI50 in test [1] is > 100 µM (inactive); in test [2], > 100 µM; in [3], > 100 µM (inactive); in test [4], > 100 µM (inactive); in test [6], > 100 µM (inactive); in [20], > 100 µM (inactive). The GI50 in test [8], in [9], in [10], in test [11], in test [12] and in test [14] was > 100 µM (inactive) each time. Also, the GI50 in test [15], in test [16], in [17], in test [18] and in [19] was > 100 µM (inactive) throughout.
Consider `COc1ccc(/C(=N/NC(=O)NN)C(c2ccc(OC)cc2)C2(O)CNc3c(Cl)cc(Cl)cc32)cc1` (stereo not given), for which the GI50 in test [1] is > 100 µM (inactive); in test [2], > 100 µM; in test [3], > 100 µM (inactive); in test [4], > 100 µM (inactive); in test [6], 65.6 µM (inactive); in [20], 44.7 µM (inactive). Besides, the GI50 in test [8] is > 100 µM (inactive); in [9] it was > 100 µM (inactive); in [10], > 100 µM (inactive); in test [11], > 100 µM (inactive); in test [12], > 100 µM (inactive); in test [14] it was 60.8 µM (inactive). For the same molecule, the GI50 in test [15], in [16], in test [17], in [18] and in test [19] was > 100 µM (inactive) in each case.
Regarding `CCOC(=O)c1[nH]c(COC(C)=O)c2c1CCCCCCCCCC2`, the GI50 in test [1] was > 100 µM (inactive); in test [2] it was > 100 µM; in [3], > 100 µM (inactive); in test [4] it was > 100 µM (inactive); in test [6], > 100 µM (inactive); in [20], > 100 µM (inactive). The GI50 in test [8], in test [9], in test [10], in [11], in [12] and in test [14] was > 100 µM (inactive) each time. In addition, the GI50 in test [15], in [16], in test [17], in test [18] and in [19] was > 100 µM (inactive) throughout.
